Columns and labels:
human NaP2b (SLC34A2) = biological target: T1, human NaP2b (SLC34A2) (Homo sapiens, UniProt O95436); experiment: NaP2b-mediated Pi transport: 33P phosphate uptake into transfected HEK293 cells; assay type: cell-based; conditions: human protein with threonine inserted after residue 37 and N39D, 100 uM KH2PO4, read-out: pIC50 range for human Nap2b (converted)
T1 construct: host or cells: HEK293
T1 sequence (O95436 1-690): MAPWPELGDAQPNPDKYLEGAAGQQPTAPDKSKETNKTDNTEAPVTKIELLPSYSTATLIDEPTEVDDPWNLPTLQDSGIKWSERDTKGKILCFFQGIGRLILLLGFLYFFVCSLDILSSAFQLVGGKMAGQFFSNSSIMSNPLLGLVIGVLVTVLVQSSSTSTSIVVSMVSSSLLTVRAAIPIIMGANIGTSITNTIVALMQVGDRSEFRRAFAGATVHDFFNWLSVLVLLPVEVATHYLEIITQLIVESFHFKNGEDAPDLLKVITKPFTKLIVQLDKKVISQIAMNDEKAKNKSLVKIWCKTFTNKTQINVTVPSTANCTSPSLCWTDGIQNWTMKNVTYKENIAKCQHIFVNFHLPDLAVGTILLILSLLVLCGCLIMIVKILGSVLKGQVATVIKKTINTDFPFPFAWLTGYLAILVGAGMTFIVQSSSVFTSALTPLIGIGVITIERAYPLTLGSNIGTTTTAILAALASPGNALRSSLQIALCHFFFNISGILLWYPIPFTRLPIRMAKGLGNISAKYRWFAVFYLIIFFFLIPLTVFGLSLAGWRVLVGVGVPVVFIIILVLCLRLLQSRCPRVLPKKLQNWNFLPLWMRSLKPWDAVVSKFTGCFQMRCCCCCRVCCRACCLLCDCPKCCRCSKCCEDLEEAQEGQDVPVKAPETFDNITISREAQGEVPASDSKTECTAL
Procedure: (§1) Materials. HEK293 cells were obtained from the American Type Culture collection and propagated per their instructions. Expression clones for rat and human NaP2b (SLC34A2) were obtained from Open Biosystems (Catalog numbers MRN1768-9510282, and MHS1010-99823026, respectively). The sequence of the human protein was mutated to insert a threonine after residue 37, and to introduce a N39D mutation.
(§2) Inhibition of Pi Transport. The rate of phosphate (Pi) uptake into HEK293 cells was measured using a modification of the method described by Mohrmann et al. (Mohrmann, I., Mohrmann, M., Biber, J., and Murer, H. (1986) Am. J. Phys. 250(3 Pt 1):G323-30.) Transfected HEK293 cells were treated with a pharmacological agent to minimize endogenous PiT-mediated phosphate transport activity, such that the only remaining sodium-dependent phosphate transport activity is that which was bestowed by introduction of the NaP2b genes.
(§3) Cells were seeded into 96-well plates at 25,000 cells/well and cultured overnight. Lipofectamine 2000 (Invitrogen) was used to introduce the NaP2b cDNA, and the cells were allowed to approach confluence during a second overnight incubation. […] Cells were then overlayed with either choline uptake buffer or sodium uptake buffer (14 mM Tris, 137 mM sodium chloride, 5.4 mM KCl, 2.8 mM CaCl2, 1.2 mM MgSO4, 100 uM KH2PO4, PiT-silencing agent, 1 mg/mL Bovine Serum Albumin, pH 7.4) containing 6-9 uCi/mL ^33P orthophosphoric acid (Perkin Elmer) and test compound. Each compound was tested at twelve concentrations ranging from 0.1 nM to 30 uM. Assays were run in duplicate.
(§4) After incubation for 3-30 minutes at room temperature, assay mixtures were removed, and the cells were washed twice with ice cold stop solution (137 mM sodium chloride, 14 mM Tris, pH 7.4). Cells were lysed by addition of 20 μL 0.1% Tween 80 followed by 100 μL scintillation fluid, and counted using a TopCount (Perkin Elmer).
(§5) pIC50 (the negative log of the IC50) values of the test compounds were calculated using GraphPad Prism.

rat NaP2b (SLC34A2) = biological target: T2, rat NaP2b (SLC34A2) (Rattus norvegicus, UniProt Q9JJ09); experiment: as above; assay type: cell-based; conditions: 100 uM KH2PO4, PiT-silencing agent, read-out: pIC50 range for rat Nap2b (converted)
T2 construct: host or cells: HEK293
T2 sequence (Q9JJ09 1-695): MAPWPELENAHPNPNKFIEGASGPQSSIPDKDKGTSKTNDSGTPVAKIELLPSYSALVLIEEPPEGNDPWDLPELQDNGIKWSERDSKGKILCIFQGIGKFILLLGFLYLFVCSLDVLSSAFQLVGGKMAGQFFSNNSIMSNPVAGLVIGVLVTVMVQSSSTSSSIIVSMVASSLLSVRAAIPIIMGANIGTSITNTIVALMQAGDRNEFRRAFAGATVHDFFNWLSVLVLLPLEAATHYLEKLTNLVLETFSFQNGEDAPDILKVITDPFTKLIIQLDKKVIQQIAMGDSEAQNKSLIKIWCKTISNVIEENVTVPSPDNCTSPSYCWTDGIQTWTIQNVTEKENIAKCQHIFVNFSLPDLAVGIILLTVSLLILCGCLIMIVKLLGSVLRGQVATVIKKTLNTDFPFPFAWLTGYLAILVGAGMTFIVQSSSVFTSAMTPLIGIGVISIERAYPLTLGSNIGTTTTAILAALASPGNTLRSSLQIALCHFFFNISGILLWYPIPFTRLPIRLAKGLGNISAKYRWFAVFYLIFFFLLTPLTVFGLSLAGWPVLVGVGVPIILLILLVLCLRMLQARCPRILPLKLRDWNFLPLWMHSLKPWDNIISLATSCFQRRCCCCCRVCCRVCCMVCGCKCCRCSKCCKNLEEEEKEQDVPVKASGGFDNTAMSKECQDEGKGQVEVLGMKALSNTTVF
Procedure: as §1, §2, §3, §4, §5

[1] = system: Uptake of Phosphorus from the Intestine; experiment: In vivo co-dosing in chow, urinary P output relative to P consumed; set-up: species or system Sprague-Dawley rats; conditions: rats, compound in chow, nominal 100 mg/kg/day (mean actual 104-105 mg/kg/day), mean of 24-96 h, vs control
From the text: Male, 7-week-old Sprague-Dawley rats (Charles-River laboratories international, Hollister, Calif.) were allowed to acclimate for a minimum of 3 days. The experiment was initiated by switching animals to a synthetic diet (0.6% phosphorus and 0.6% calcium, Harlan Teklad TD.84122) for four days. After this time, the animals were placed into metabolic cages for daily monitoring of food and water consumption, as well as urine and fecal collections. Test compounds were incorporated into the powdered diet listed above containing 3% chocolate flavoring (w/w, BioSery #7345) at 1.3 mg test compound per gram of diet to achieve an average daily nominal dose of 100 mg/kg/day. The actual dose received by each animal was later determined by measuring prepared diet consumption and body weight. Urine samples were collected in three daily periods from 24-48, 48-72, and 72-96 hours of drug dosing. […] Phosphorous levels in the urine were determined by anion exchange chromatography using a Dionex ICS-3000 ion chromatography system. […] Elution of urine phosphate ions was monitored via conductivity detector and reported as ppm relative to a standard ion solution containing phosphate. Daily urinary P output relative to the P consumed in the prepared diet for each animal was calculated. […] The differences between the means of control and treated groups were evaluated by t tests. […]

[2] = Stability in simulated gastric and intestinal fluid; assay type: in vitro ADME; conditions: 6 hr, 1-20 μM
Procedure: Test compounds were incubated at 1-20 μM in simulated gastric fluid (SGF; standard USP solution with 3 mg/mL pepsin) or simulated intestinal fluid (SIF; standard USP solution with 3 mg/mL pancreatin) for 3 hr or 6 hr. HPLC-UV or HPLC-MS were used to determine test compound levels using peak area %. Results (Table 5) were reported as the percentage of test compound remaining after incubation in a given condition relative to test compound present at t=0 in the same condition.

[3] = Fecal recovery of orally administered compounds; assay type: in vivo, Sprague-Dawley rats; conditions: rats, oral gavage, nominal 10 mg/kg (actual 7.6-11 mg/kg), feces 0-48 hr after dosing
Procedure: Quantitative determination of test compound level in feces after oral gavage was performed using the same set of animals used to determine test compound concentration in plasma (Example 30). The animals were kept in metabolic cages and feces were collected from the time of dosing until 48 hr after dosing. Upon collection, feces was dried by lyophilization and ground to a visually homogenous powder. Duplicate samples of ground feces from each individual animal were weighed out and extracted using organic solvent. Extracted samples were then diluted into mobile phase and test compound levels were quantitatively determined by LC-MS/MS analysis as described in “Example 30” except that the standard curve was prepared in a feces matrix. Extraction conditions were not optimized for individual compounds, and thus may represent a minimal level of recovery.

CN(CCOCCOCCOCCC(=O)O)C(=O)c1cccc(C(=O)Nc2ccc(N3CCCCC3)cc2C(=O)Nc2ccn(-c3cccc(C(F)(F)F)c3)n2)c1 [Example 15, 2-Methyl-1-oxo-1-(3-((4-(piperidin-1-yl)-2-((1-(3-(trifluoromethyl)phenyl)-1H-pyrazol-3-yl)carbamoyl)phenyl)carbamoyl)phenyl)-5,8,11-trioxa-2-azatetradecan-14-oic acid]
IC50 (human NaP2b (SLC34A2)): < 1000 nM | IC50 (rat NaP2b (SLC34A2)): 1 to 7.94 µM | Mean % inhibition Urine Pout/P consumed [1]: 9% | % remaining, SGF ([2]; simulated gastric fluid with 3 mg/mL pepsin): 100% | % remaining, SIF ([2]; simulated intestinal fluid with 3 mg/mL pancreatin): 97% | % recovered in feces [3]: 17%
